# Test results taken from PubChem BioAssay AID260 (DTP/NCI, 2004).
# Several values for one entry are separate records, joined by “and”; a condition that tells them apart may be missing. Equal values may be shown once. Inconclusive results and toxic doses are left out.
# System: CD2F1 mice, intracerebral L1210 leukemia, survival T/C
# Experiment: NCI In Vivo Anticancer Drug Screen. Data for tumor model L1210 Leukemia (intracerebral) in CD2F1 (CDF1) mice
# Details: higher = longer survival
# Procedure: The antitumor activity of compounds was measured in mice bearing transplantable tumors. Survival or tumor size were measured and the results are expressed as the measurement made in the treated group (T) divided by the measurement made in the vehicle treated control group (C). The tumor model used in this assay is L1210 Leukemia (intracerebral) in CD2F1 (CDF1) mice
# [1] = endpoint: median survival time, dose: 0.5 mg/kg/injection, schedule: Q01DX009 (ip), vehicle: saline
# [2] = endpoint: median survival time, dose: 1.0 mg/kg/injection, schedule: Q01DX009 (ip), vehicle: saline
# [3] = endpoint: median survival time, dose: 2.0 mg/kg/injection, schedule: Q01DX009 (ip), vehicle: saline
# [4] = endpoint: median survival time, dose: 4.0 mg/kg/injection, schedule: Q01DX009 (ip), vehicle: saline
# [5] = endpoint: median survival time, dose: 8.0 mg/kg/injection, schedule: Q01DX009 (ip), vehicle: saline
# [6] = endpoint: mean survival time, dose: 10.0 mg/kg/injection, schedule: Q01DX007 (ip), vehicle: DMSO
# [7] = endpoint: mean survival time, dose: 20.0 mg/kg/injection, schedule: Q01DX007 (ip), vehicle: DMSO
# [8] = endpoint: mean survival time, dose: 40.0 mg/kg/injection, schedule: Q01DX007 (ip), vehicle: DMSO
# [9] = endpoint: mean survival time, dose: 80.0 mg/kg/injection, schedule: Q01DX007 (ip), vehicle: DMSO
structure (smiles),measurement,setting,value
C[C@@H](CN1CC(=O)NC(=O)C1)N1CC(=O)NC(=O)C1,T/C,"endpoint: mean survival time, dose: 64.0 mg/kg/injection, schedule: Q01DX009 (ip), vehicle: water",164 % of control
same,T/C,"endpoint: mean survival time, dose: 256.0 mg/kg/injection, schedule: Q01DX009 (ip), vehicle: water",111 % of control
same,T/C,"endpoint: mean survival time, dose: 512.0 mg/kg/injection, schedule: Q01DX009 (ip), vehicle: water",100 % of control
COC1OC(CO)C(O)C(NC(=O)N(C)N=O)C1O (centres undefined),T/C,[1],102 % of control
same,T/C,[2],107 % of control
same,T/C,[3],111 % of control
same,T/C,[4],111 % of control
same,T/C,[5],116 % of control
same,T/C,"endpoint: median survival time, dose: 16.0 mg/kg/injection, schedule: Q01DX009 (ip), vehicle: saline",102 % of control
CC1C[C@@H](O)C(NC(=O)N(CCCl)N=O)[C@@H](O)C1 (some centres undefined),T/C,"endpoint: mean survival time, dose: 6.0 mg/kg/injection, schedule: Q01DX001 (ip), vehicle: saline",123 % of control
same,T/C,"endpoint: mean survival time, dose: 13.0 mg/kg/injection, schedule: Q01DX001 (ip), vehicle: saline",154 % of control
same,T/C,"endpoint: mean survival time, dose: 20.0 mg/kg/injection, schedule: Q01DX001 (ip), vehicle: saline",332 % of control
same,T/C,"endpoint: mean survival time, dose: 30.0 mg/kg/injection, schedule: Q01DX001 (ip), vehicle: saline",186 % of control
same,T/C,"endpoint: mean survival time, dose: 45.0 mg/kg/injection, schedule: Q01DX001 (ip), vehicle: saline",157 % of control
CCCCCC(=O)O[C@]1(C(C)=O)CC[C@H]2[C@@H]3CCC4=CC(=O)CC[C@]4(C)[C@H]3CC[C@@]21C,T/C,"endpoint: median survival time, dose: 8.0 mg/kg/injection, schedule: Q01DX009 (ip), vehicle: saline with Tween-80",117 % of control
same,T/C,"endpoint: median survival time, dose: 16.0 mg/kg/injection, schedule: Q01DX009 (ip), vehicle: saline with Tween-80",104 % of control
same,T/C,"endpoint: median survival time, dose: 32.0 mg/kg/injection, schedule: Q01DX009 (ip), vehicle: saline with Tween-80",114 % of control
same,T/C,"endpoint: median survival time, dose: 64.0 mg/kg/injection, schedule: Q01DX009 (ip), vehicle: saline with Tween-80",94 % of control
same,T/C,"endpoint: median survival time, dose: 128.0 mg/kg/injection, schedule: Q01DX009 (ip), vehicle: saline with Tween-80",93 % of control
same,T/C,"endpoint: median survival time, dose: 256.0 mg/kg/injection, schedule: Q01DX009 (ip), vehicle: saline with Tween-80",94 % of control
same,T/C,"endpoint: median survival time, dose: 512.0 mg/kg/injection, schedule: Q01DX009 (ip), vehicle: saline with Tween-80",107 % of control
CC(C)=CCC1=C(O)c2ccccc2C(=O)C1=O,T/C,"endpoint: median survival time, dose: 32.0 mg/kg/injection, schedule: Q01DX005 (ip), vehicle: Klucel (hydroxypropylcellulose) (HPC)",96 % of control and 100 % of control
same,T/C,"endpoint: median survival time, dose: 64.0 mg/kg/injection, schedule: Q01DX005 (ip), vehicle: Klucel (hydroxypropylcellulose) (HPC)",97 % of control and 102 % of control
same,T/C,"endpoint: median survival time, dose: 128.0 mg/kg/injection, schedule: Q01DX005 (ip), vehicle: Klucel (hydroxypropylcellulose) (HPC)",92 % of control and 93 % of control
same,T/C,"endpoint: median survival time, dose: 256.0 mg/kg/injection, schedule: Q01DX005 (ip), vehicle: Klucel (hydroxypropylcellulose) (HPC)",96 % of control and 105 % of control
CN(C)N=Nc1ccccc1C(=O)O,T/C,"endpoint: mean survival time, dose: 5.0 mg/kg/injection, schedule: Q01DX007 (ip), vehicle: other",103 % of control
same,T/C,"endpoint: mean survival time, dose: 10.0 mg/kg/injection, schedule: Q01DX007 (ip), vehicle: other",109 % of control
same,T/C,"endpoint: mean survival time, dose: 20.0 mg/kg/injection, schedule: Q01DX007 (ip), vehicle: other",112 % of control
same,T/C,"endpoint: mean survival time, dose: 40.0 mg/kg/injection, schedule: Q01DX007 (ip), vehicle: other",101 % of control
same,T/C,"endpoint: median survival time, dose: 4.0 mg/kg/injection, schedule: Q01DX005 (ip), vehicle: saline + alcohol",105 % of control
same,T/C,"endpoint: median survival time, dose: 8.0 mg/kg/injection, schedule: Q01DX005 (ip), vehicle: saline + alcohol",102 % of control
same,T/C,"endpoint: median survival time, dose: 16.0 mg/kg/injection, schedule: Q01DX005 (ip), vehicle: saline + alcohol",105 % of control
same,T/C,"endpoint: median survival time, dose: 32.0 mg/kg/injection, schedule: Q01DX005 (ip), vehicle: saline + alcohol",108 % of control
same,T/C,"endpoint: median survival time, dose: 64.0 mg/kg/injection, schedule: Q01DX005 (ip), vehicle: saline + alcohol",97 % of control
COS(C)(=O)=O,T/C,"endpoint: median survival time, dose: 16.0 mg/kg/injection, schedule: Q01DX005 (ip), vehicle: saline",107 % of control and 108 % of control
same,T/C,"endpoint: median survival time, dose: 32.0 mg/kg/injection, schedule: Q01DX005 (ip), vehicle: saline",120 % of control
same,T/C,"endpoint: median survival time, dose: 64.0 mg/kg/injection, schedule: Q01DX005 (ip), vehicle: saline",113 % of control
same,T/C,"endpoint: median survival time, dose: 128.0 mg/kg/injection, schedule: Q01DX005 (ip), vehicle: saline",107 % of control and 111 % of control
CN=NNc1nc[nH]c1C(N)=O,T/C,"endpoint: median survival time, dose: 16.0 mg/kg/injection, schedule: Q01DX005 (ip), vehicle: saline with Tween-80",107 % of control
same,T/C,"endpoint: median survival time, dose: 32.0 mg/kg/injection, schedule: Q01DX005 (ip), vehicle: saline with Tween-80",101 % of control
same,T/C,"endpoint: median survival time, dose: 64.0 mg/kg/injection, schedule: Q01DX005 (ip), vehicle: saline with Tween-80",112 % of control
same,T/C,"endpoint: median survival time, dose: 128.0 mg/kg/injection, schedule: Q01DX005 (ip), vehicle: saline with Tween-80",107 % of control
same,T/C,"endpoint: median survival time, dose: 256.0 mg/kg/injection, schedule: Q01DX005 (ip), vehicle: saline with Tween-80",86 % of control
NC(=S)N/N=C/c1ccc(O)cn1,T/C,"endpoint: median survival time, dose: 12.0 mg/kg/injection, schedule: Q01DX005 (ip), vehicle: saline",95 % of control and 105 % of control
same,T/C,"endpoint: median survival time, dose: 24.0 mg/kg/injection, schedule: Q01DX005 (ip), vehicle: saline",107 % of control and 115 % of control
same,T/C,"endpoint: median survival time, dose: 48.0 mg/kg/injection, schedule: Q01DX005 (ip), vehicle: saline",113 % of control and 117 % of control
same,T/C,"endpoint: median survival time, dose: 96.0 mg/kg/injection, schedule: Q01DX005 (ip), vehicle: saline",121 % of control
COc1ccc2c(c1)CCC(c1ccccc1)=C2c1ccc(OCCN2CCCC2)cc1,T/C,"endpoint: median survival time, dose: 12.0 mg/kg/injection, schedule: Q01DX005 (ip), vehicle: Klucel (hydroxypropylcellulose) (HPC)",98 % of control and 101 % of control
same,T/C,"endpoint: median survival time, dose: 24.0 mg/kg/injection, schedule: Q01DX005 (ip), vehicle: Klucel (hydroxypropylcellulose) (HPC)",106 % of control
same,T/C,"endpoint: median survival time, dose: 48.0 mg/kg/injection, schedule: Q01DX005 (ip), vehicle: Klucel (hydroxypropylcellulose) (HPC)",108 % of control
same,T/C,"endpoint: median survival time, dose: 96.0 mg/kg/injection, schedule: Q01DX005 (ip), vehicle: Klucel (hydroxypropylcellulose) (HPC)",106 % of control
CN(C)N=Nc1ccc(C(=O)O)cc1,T/C,[6],91 % of control
same,T/C,[7],96 % of control
same,T/C,"endpoint: mean survival time, dose: 25.0 mg/kg/injection, schedule: Q01DX009 (ip), vehicle: saline",104 % of control
same,T/C,[8],108 % of control
same,T/C,"endpoint: mean survival time, dose: 50.0 mg/kg/injection, schedule: Q01DX009 (ip), vehicle: saline",119 % of control
same,T/C,[9],122 % of control
same,T/C,"endpoint: mean survival time, dose: 200.0 mg/kg/injection, schedule: Q01DX009 (ip), vehicle: saline",113 % of control
CN(C)N=Nc1ccc(Cl)cc1,T/C,[6],90 % of control
same,T/C,[7],91 % of control
same,T/C,[8],108 % of control
same,T/C,[9],87 % of control
same,T/C,"endpoint: mean survival time, dose: 120.0 mg/kg/injection, schedule: Q01DX007 (ip), vehicle: DMSO",91 % of control
CN(CO)c1nc(N(C)CO)nc(N(C)CO)n1,T/C,"endpoint: median survival time, dose: 3.12 mg/kg/injection, schedule: Q01DX009 (ip), vehicle: saline with Tween-80",101 % of control
same,T/C,"endpoint: median survival time, dose: 6.25 mg/kg/injection, schedule: Q01DX009 (ip), vehicle: saline with Tween-80",96 % of control
same,T/C,"endpoint: median survival time, dose: 12.5 mg/kg/injection, schedule: Q01DX009 (ip), vehicle: saline with Tween-80",100 % of control
same,T/C,"endpoint: median survival time, dose: 25.0 mg/kg/injection, schedule: Q01DX009 (ip), vehicle: saline with Tween-80",95 % of control
same,T/C,"endpoint: median survival time, dose: 50.0 mg/kg/injection, schedule: Q01DX009 (ip), vehicle: Klucel (hydroxypropylcellulose) (HPC)",104 % of control and 109 % of control
same,T/C,"endpoint: median survival time, dose: 50.0 mg/kg/injection, schedule: Q01DX009 (ip), vehicle: saline with Tween-80",104 % of control
same,T/C,"endpoint: median survival time, dose: 100.0 mg/kg/injection, schedule: Q01DX009 (ip), vehicle: Klucel (hydroxypropylcellulose) (HPC)",119 % of control and 116 % of control
CN(CCO)C1=C(N2CC2)C(=O)C(N(C)CCO)=C(N2CC2)C1=O,T/C,"endpoint: mean survival time, dose: 0.5 mg/kg/injection, schedule: Q01DX009 (ip), vehicle: saline",106 % of control and 109 % of control
same,T/C,"endpoint: mean survival time, dose: 1.0 mg/kg/injection, schedule: Q01DX009 (ip), vehicle: saline",111 % of control
same,T/C,"endpoint: mean survival time, dose: 4.0 mg/kg/injection, schedule: Q01DX009 (ip), vehicle: saline",101 % of control
COc1cc([C@@H]2c3cc4c(cc3[C@@H](OC3OC5CO[C@@H](c6cccs6)OC5C(O)C3O)[C@H]3COC(=O)[C@H]23)OCO4)cc(OC)c1O (some centres undefined),T/C,"endpoint: median survival time, dose: 0.25 mg/kg/injection, schedule: Q01DX009 (ip), vehicle: saline",101 % of control and 108 % of control
same,T/C,[1],108 % of control and 111 % of control
same,T/C,[2],111 % of control and 116 % of control
same,T/C,[3],124 % of control and 114 % of control
same,T/C,[4],122 % of control and 104 % of control
same,T/C,[5],88 % of control
